Literature values, collected in patent US7026304B2, “2-alkylated-cyclodextrin derivatives: reversal agents for drug-induced neuromuscular block” (Akzo Nobel N.V., priority 2001, dated 2006).

Test system: steady-state neuromuscular block induced by the muscle relaxant rocuronium bromide (Roc)
Conditions: anaesthetized guinea pigs, as already described in WO 01/12202, cited from earlier work

Structure (SMILES): OC[C@H]1O[C@@H]2O[C@H]3[C@H](O)[C@@H](O)[C@@H](O[C@H]4[C@H](O)[C@@H](O)[C@@H](O[C@H]5[C@H](O)[C@@H](O)[C@@H](O[C@H]6[C@H](O)[C@@H](O)[C@@H](O[C@H]7[C@H](O)[C@@H](O)[C@@H](O[C@H]8[C@H](O)[C@@H](O)[C@@H](O[C@H]9[C@H](O)[C@@H](O)[C@@H](O[C@H]1[C@H](O)[C@H]2O)O[C@@H]9CO)O[C@@H]8CO)O[C@@H]7CO)O[C@@H]6CO)O[C@@H]5CO)O[C@@H]4CO)O[C@@H]3CO [γ-cyclodextrin]
- ED50, dose producing 50% reversal of steady-state neuromuscular block (parent cyclodextrins for comparison): 4 µmol/kg
- % max reversal (parent cyclodextrins): 104%
- dose at maximum reversal (parent cyclodextrins): (47) μmol · kg^−1
